# Assay results from patent US20020002294A1, “Estrogenic compounds as antiangiogenic agents” (priority 1997, published 2002).
# Tests used:
# Melanoma cell lines = assay: Human Tumor Cell Panel Assay in vitro, melanoma panel; assay type: cell-based; parameters: key: Most sensitive cell panes are marked with ✓
# Excerpt: (§1) The tubulin activities, breast cancer cell line activities, and the cell panels most sensitive to selected analogs are shown in Tables 3 and 4.
# [1] = system: corneal neovascularization; assay: Mouse Corneal Micropocket Assay; assay type: in vivo, mice; conditions: 150 mg/kg, daily oral, 5 days
# Experimental: Five- to 7-week-old SCID female mice were obtained from Massachusetts General Hospital (Boston, Mass.), Immunocompetent 7-9-week-old female C57BL/6 mice were obtained from ARCH Technical Services, Children's Hospital (Boston, Mass.). All animal studies were conducted according to protocols approved by the Animal Ethics Committee of Children's Hospital. Animals were anesthetized in a methoxyflurane (Pittman-Moore, Mundelein, Ill.) chamber prior to all procedures and were observed until fully recovered. Animals were sacrificed by a lethal dose of methoxyflurane.
# Mouse Corneal Micropocket Assay To study the effect of microtubule inhibitors on angiogenesis in vivo, a model of angiogenesis in the mouse cornea was used in […] mice as described previously (Kenyon, B. B., Voest, E. E., Chen, C. C., Folkman, J., and D'Amato, R. J. A model of angiogenesis in the mouse cornea. Invest. Ophthalmol. & Visual Sci., 76: 1625-1632, 1996). In brief, after animals were anesthetized, corneal micropockets were created in both eyes with a modified von Graefe cataract knife. Into each pocket, a 0.4 mm ×0.4 mm×0.2 mm sucrose aluminum sulfate (Bukh Meditee, Copenhagen, Denmark) pellet coated with hydron polymer type NCC (IHN Sciences, New Brunswick, N.J.) containing 80 ng of bFGF or 160 ng of human recombinant […] (gift from Reprogenesis, Cambridge, Mass.) was implanted 1.0-1.2 mm from the limbal vessels (bFGF experiments) or 0.5-0.7 mm from the limbus (VEGF experiments). Erythromycin ointment (E. Fougera, Melville, N.Y.) was applied to each operated eye. The sucralfate acts to stabilize the growth factor and to slow its release from the hydron. Before testing each drug in this assay, we found the maximal dose that could be administered daily for 5 consecutive days without producing signs of toxicity (i.e., no hair loss, diarrhea, infection, lethargy, or weight loss). The treated groups received daily oral administration for 5 consecutive days of the stated dosage of 2-ME or a derivative thereof suspended in 0.5 g/100 ml of carboxymethylcellulose.
# Treatment was started on the day of pellet implantation. […] For this purpose, the eyes of the mice were examined by slit-lamp biomicroscopy. Area of corneal neovascularization was calculated using a modified formula for a half-ellipse: Area (mm^2)=[π×clock hours×length (mm)×0.2 mm]. This formula provides the most accurate approximation of the area of neovascularization that grows toward the pellet. (Kenyon, B. B., Voest, E. E., Chen, C. C., Folkman, J., and D'Amato, R. J. A model of angiogenesis in the mouse cornea. Invest. Ophthalmol. & Visual Sci., 76: 1625-1632, 1996).
# CNS cell lines = assay: Human Tumor Cell Panel Assay in vitro, CNS panel; assay type: cell-based; parameters: key: Most sensitive cell panes are marked with ✓
# Excerpt: as §1
smiles,measurement,setting,value
"COc1cc2c(cc1O)CCC1C2CCC2(C)C(O)CCC12 (stereo not drawn) [NSC 659853, 2-Methoxyestradiol]",Most Sensitive Cell Lines in Human Tumor Cell Panel Assay: Melanoma,Melanoma cell lines,✓
same,inhibition in corneal pocket assay,[1],25%
same,Most Sensitive Cell Lines in Human Tumor Cell Panel Assay: CNS,CNS cell lines,✓
